In data set [1] the test system is Moraxella catarrhalis. Briefly: Antibacterial activity against Moraxella catarrhalis after 18 to 24 hrs by agar dilution method. In kind it is functional, organism-based. (Agar dilution tests growth on a series of plates holding different concentrations.)
For data set [2], the target named is Interleukin-1 receptor-associated kinase 1 (Homo sapiens, UniProt P51617). Briefly: Inhibition of human IRAK1 incubated for 20 mins prior to MgCl2 addition measured after 90 mins by mobility shift assay.
For data set [3], the system named is Streptococcus pneumoniae. Briefly: Antibacterial activity against Streptococcus pneumoniae after 18 to 24 hrs by agar dilution method. In kind it is functional, organism-based.
In data set [4] the test system is Streptococcus pyogenes. Briefly: Antibacterial activity against Streptococcus pyogenes after 18 to 24 hrs by agar dilution method. It is filed as functional, organism-based.
Data set [5] addresses Tyrosine-protein kinase JAK2 (Homo sapiens, UniProt O60674). The data set can be described thus: Inhibition of human JAK2 incubated for 20 mins prior to MgCl2 addition measured after 90 mins by mobility shift assay.
The test system of data set [6] is Haemophilus influenzae. Briefly: Antibacterial activity against Haemophilus influenzae after 18 to 24 hrs by agar dilution method. It is filed as functional, organism-based.
In data set [7] the target is T1, Tyrosine-protein kinase JAK3 (Homo sapiens, UniProt P52333).
T1 sequence (P52333 whole entry): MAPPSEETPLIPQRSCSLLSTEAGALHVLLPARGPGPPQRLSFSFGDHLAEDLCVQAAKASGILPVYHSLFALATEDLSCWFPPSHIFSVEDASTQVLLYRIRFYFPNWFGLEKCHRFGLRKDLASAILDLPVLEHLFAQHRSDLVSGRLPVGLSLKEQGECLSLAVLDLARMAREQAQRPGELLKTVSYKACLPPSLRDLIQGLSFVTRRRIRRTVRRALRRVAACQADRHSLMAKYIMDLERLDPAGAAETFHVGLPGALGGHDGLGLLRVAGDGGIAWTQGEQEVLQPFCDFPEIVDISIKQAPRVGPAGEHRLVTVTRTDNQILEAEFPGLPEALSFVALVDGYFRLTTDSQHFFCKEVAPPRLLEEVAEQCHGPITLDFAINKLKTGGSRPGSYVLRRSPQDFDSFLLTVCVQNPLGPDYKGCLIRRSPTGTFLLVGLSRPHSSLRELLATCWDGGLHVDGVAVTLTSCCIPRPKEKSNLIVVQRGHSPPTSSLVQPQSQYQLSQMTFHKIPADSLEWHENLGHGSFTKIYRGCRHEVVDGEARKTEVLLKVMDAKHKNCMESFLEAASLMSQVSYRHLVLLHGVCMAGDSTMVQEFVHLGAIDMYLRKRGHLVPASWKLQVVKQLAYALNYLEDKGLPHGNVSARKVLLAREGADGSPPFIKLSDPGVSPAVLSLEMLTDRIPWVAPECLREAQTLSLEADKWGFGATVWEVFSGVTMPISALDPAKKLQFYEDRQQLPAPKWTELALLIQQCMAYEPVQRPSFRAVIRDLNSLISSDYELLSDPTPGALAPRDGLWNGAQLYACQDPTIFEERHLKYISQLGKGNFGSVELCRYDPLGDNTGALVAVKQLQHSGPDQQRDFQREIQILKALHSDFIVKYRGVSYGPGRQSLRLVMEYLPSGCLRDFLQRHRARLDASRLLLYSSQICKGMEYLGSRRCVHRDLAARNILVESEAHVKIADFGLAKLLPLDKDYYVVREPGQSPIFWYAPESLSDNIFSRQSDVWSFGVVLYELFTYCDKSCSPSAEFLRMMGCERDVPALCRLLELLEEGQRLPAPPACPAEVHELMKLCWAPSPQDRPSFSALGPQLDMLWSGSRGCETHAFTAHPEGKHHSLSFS
The data set can be described thus: Inhibition of human JAK3 incubated for 20 mins prior to MgCl2 addition measured after 90 mins by mobility shift assay.

The target in data set [8] is Aurora kinase B (Homo sapiens, UniProt Q96GD4). The data set can be described thus: Inhibition of human AURKB incubated for 20 mins prior to MgCl2 addition measured after 90 mins by mobility shift assay.
For data set [9], the target named is Cyclin-dependent kinase 2 (Homo sapiens, UniProt P24941). Briefly: Inhibition of human CDK2 incubated for 20 mins prior to MgCl2 addition measured after 90 mins by mobility shift assay.
Data set [10] deals with T2, Interleukin-1 receptor-associated kinase 4 (Homo sapiens, UniProt Q9NWZ3).
T2 sequence (Q9NWZ3 whole entry): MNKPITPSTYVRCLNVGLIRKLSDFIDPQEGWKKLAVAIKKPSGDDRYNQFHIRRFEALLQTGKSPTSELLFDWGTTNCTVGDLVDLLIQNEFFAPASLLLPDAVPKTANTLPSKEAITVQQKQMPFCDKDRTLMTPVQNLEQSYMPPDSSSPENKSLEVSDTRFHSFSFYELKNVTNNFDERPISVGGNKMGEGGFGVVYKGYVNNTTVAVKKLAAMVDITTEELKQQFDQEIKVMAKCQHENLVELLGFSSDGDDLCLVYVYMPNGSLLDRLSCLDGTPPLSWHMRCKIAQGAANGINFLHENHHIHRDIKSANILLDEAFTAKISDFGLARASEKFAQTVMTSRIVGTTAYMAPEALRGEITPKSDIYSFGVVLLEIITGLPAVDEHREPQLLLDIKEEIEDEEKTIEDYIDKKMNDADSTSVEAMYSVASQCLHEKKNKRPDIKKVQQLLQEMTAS
Briefly: Inhibition of human IRAK4 incubated for 20 mins prior to MgCl2 addition measured after 90 mins by mobility shift assay.

The target of data set [11] is Bifunctional protein GlmU (Escherichia coli, UniProt C3SLB7). Briefly: Inhibition of Escherichia coli ATCC 27325 GlmU expressed in Escherichia coli HMS174(DE3) incubated for 15 mins prior to MgCl2 addition measured after 30 mins by malachite green staining-based assay.
Data set [12] is described as follows: Inhibition of Haemophilus influenzae ATCC 51907 GlmU expressed in Escherichia coli BL21(DE3) incubated for 15 mins prior to MgCl2 addition measured after 30 mins by malachite green staining-based assay.
Data set [13] can be described thus: Serum protein binding in human at 10 uM after 30 mins by ultrafiltration method. In kind it is ADME. Particulars: read-out: PB (converted).
The target in data set [14] is Tyrosine-protein kinase JAK1 (Homo sapiens, UniProt P23458). Briefly: Inhibition of human JAK1 incubated for 20 mins prior to MgCl2 addition measured after 90 mins by mobility shift assay.
Data set [15] deals with Cyclin-dependent kinase 1 (Homo sapiens, UniProt P06493). The data set can be described thus: Inhibition of human CDK1 incubated for 20 mins prior to MgCl2 addition measured after 90 mins by mobility shift assay.
The target in data set [16] is Cyclin-dependent kinase 9 (Homo sapiens, UniProt P50750). Briefly: Inhibition of human CDK9 incubated for 20 mins prior to MgCl2 addition measured after 90 mins by mobility shift assay.

Activity calls are given as the source filed them. The calls are words filed in the database; no cut-off is given here.

Aurora kinase B, sequence (Q96GD4 whole entry): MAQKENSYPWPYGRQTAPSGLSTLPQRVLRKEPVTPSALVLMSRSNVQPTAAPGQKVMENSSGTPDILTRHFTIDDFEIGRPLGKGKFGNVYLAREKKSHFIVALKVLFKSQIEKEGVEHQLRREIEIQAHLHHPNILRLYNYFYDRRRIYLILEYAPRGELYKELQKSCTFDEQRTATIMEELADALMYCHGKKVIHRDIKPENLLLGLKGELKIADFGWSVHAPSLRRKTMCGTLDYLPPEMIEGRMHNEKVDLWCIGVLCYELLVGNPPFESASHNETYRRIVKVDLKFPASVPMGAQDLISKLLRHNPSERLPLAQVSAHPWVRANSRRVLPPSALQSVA
Cyclin-dependent kinase 9, sequence (P50750 whole entry): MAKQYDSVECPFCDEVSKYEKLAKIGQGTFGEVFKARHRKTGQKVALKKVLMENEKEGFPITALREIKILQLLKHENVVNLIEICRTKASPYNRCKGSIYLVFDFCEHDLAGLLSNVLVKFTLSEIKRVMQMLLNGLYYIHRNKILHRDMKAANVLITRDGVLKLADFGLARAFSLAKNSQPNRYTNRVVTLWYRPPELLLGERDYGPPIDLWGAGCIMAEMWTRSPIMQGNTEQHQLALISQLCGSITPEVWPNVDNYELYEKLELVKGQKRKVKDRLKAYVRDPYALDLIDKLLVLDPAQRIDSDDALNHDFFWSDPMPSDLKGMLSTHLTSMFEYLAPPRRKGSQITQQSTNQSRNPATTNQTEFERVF
Bifunctional protein GlmU, sequence (C3SLB7 whole entry): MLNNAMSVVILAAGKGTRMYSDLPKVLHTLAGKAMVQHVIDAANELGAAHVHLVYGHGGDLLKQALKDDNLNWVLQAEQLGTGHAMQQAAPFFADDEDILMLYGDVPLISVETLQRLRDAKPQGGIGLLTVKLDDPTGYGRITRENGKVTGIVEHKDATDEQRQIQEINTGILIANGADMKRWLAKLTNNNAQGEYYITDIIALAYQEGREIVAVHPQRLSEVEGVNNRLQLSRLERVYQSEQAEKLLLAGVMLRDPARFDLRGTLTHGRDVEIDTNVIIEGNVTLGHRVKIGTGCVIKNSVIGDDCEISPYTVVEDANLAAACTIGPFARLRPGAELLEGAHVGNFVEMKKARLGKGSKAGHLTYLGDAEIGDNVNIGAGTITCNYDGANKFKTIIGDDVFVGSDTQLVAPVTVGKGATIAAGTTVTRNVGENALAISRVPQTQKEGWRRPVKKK
Interleukin-1 receptor-associated kinase 1, sequence (P51617 whole entry): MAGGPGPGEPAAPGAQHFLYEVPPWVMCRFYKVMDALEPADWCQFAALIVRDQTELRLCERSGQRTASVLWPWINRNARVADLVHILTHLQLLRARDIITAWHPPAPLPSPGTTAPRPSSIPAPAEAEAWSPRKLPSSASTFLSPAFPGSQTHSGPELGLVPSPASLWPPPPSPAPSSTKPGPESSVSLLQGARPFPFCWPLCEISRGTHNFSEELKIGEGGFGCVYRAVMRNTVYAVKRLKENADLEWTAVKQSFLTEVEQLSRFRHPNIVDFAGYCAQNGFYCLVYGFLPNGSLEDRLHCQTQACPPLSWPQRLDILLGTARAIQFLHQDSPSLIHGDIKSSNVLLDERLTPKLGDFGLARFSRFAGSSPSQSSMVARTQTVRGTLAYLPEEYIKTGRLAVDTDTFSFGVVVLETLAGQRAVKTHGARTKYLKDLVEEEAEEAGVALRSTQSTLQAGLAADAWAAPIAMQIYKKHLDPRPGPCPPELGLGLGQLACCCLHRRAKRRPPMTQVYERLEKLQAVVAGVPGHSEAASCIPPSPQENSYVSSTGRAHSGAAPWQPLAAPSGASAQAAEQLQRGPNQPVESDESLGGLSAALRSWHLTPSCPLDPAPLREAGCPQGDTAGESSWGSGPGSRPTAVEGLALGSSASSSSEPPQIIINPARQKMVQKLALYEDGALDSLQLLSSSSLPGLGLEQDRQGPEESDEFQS
Tyrosine-protein kinase JAK1, sequence (P23458 whole entry): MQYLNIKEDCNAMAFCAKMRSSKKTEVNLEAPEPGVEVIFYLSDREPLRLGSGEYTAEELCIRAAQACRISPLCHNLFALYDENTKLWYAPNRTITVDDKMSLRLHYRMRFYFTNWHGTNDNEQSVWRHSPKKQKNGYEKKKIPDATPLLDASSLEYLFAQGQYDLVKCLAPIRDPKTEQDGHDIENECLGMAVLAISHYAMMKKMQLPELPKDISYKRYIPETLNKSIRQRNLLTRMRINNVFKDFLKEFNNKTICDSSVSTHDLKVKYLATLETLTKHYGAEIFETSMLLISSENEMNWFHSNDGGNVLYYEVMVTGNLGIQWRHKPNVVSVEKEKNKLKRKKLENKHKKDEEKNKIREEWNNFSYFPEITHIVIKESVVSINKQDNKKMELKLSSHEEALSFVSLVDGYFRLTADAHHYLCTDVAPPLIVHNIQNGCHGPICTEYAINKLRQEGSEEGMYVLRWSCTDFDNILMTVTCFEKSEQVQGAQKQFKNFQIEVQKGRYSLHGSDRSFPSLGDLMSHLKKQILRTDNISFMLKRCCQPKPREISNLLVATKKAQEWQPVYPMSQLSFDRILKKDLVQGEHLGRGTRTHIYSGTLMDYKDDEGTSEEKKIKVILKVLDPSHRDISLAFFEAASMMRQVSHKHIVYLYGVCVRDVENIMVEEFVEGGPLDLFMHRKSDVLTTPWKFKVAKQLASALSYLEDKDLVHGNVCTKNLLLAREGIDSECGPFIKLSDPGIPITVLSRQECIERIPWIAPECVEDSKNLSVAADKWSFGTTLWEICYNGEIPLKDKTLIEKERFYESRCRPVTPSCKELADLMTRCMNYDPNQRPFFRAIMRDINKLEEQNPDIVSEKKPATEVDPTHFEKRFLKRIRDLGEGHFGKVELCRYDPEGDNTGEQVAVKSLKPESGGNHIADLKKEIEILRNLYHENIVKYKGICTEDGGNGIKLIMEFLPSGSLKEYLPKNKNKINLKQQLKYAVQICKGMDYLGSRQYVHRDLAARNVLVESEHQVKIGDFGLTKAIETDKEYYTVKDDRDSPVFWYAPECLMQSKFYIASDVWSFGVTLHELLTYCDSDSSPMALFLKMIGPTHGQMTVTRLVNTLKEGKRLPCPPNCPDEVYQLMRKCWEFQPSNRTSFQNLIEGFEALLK
Tyrosine-protein kinase JAK2, sequence (O60674 whole entry): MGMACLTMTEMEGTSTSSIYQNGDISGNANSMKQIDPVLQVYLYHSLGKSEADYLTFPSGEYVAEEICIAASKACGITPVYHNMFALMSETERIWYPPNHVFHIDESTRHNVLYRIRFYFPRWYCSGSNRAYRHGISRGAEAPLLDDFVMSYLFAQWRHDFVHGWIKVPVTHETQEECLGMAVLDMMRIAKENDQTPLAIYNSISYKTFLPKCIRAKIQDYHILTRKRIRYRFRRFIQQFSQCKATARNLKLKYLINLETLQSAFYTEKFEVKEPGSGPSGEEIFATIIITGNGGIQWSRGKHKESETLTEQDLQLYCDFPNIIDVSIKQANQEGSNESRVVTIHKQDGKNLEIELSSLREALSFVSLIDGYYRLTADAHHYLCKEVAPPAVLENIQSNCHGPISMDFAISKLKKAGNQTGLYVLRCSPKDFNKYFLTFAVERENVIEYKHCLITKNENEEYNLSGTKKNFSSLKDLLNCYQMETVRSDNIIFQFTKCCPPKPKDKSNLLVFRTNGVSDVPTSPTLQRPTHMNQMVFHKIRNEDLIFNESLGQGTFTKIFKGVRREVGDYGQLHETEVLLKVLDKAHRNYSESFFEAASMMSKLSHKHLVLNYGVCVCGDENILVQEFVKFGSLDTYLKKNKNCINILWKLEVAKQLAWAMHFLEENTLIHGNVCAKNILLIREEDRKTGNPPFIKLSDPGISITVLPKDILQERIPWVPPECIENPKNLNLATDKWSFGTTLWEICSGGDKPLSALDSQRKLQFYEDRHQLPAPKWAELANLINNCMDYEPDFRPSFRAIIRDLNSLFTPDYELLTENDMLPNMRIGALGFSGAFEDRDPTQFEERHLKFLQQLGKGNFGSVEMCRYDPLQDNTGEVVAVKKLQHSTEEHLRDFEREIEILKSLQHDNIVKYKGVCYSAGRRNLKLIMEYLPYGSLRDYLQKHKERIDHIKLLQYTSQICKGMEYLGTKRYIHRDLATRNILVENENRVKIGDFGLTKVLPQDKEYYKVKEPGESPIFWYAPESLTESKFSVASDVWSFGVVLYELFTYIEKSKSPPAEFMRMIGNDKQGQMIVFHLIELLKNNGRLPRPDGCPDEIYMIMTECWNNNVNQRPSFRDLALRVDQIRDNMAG
Cyclin-dependent kinase 1, sequence (P06493 whole entry): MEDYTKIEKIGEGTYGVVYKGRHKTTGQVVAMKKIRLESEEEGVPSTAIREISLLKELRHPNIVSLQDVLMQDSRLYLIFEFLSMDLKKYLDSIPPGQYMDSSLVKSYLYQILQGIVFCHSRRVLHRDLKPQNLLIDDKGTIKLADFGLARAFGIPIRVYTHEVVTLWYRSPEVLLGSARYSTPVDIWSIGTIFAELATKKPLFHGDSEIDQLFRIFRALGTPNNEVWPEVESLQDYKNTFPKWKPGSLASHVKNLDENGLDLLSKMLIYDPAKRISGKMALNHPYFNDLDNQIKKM

One may read the IC50 as the point on the concentration scale where inhibition reaches its midpoint. On to `CCNC(=O)Nc1ccc(NC(=O)c2cc(OC)cc(-c3c[nH]c(=O)[nH]c3=O)c2)cc1`, for which the outcome in data set [1], in [3], in data set [4] and in [6] was inactive. In addition, the half-inhibitory concentration (IC50) in data set [2] is over 30 µM; in data set [5], over 30 µM; in data set [7], over 30 µM; in data set [8], 18.1 µM; in data set [9], over 30 µM; in data set [10], over 30 µM. For the same compound, the IC50 in data set [11] is 0.97 µM; in [12], 0.077 µM; in data set [14], over 30 µM; in [15], over 30 µM; in [16] it was over 30 µM. Further, the fraction unbound at 0.5 h, 10 µM in data set [13] is 0.159.
On to `O=C(Nc1ccc(NC(=O)c2ccccn2)cc1)c1ccc(O)c([N+](=O)[O-])c1`, for which the IC50 was over 30 µM in data set [2]; over 30 µM in data set [5]; over 30 µM in data set [7]; 23.1 µM in [8]; over 30 µM in data set [9]; over 30 µM in data set [10]. The half-inhibitory concentration (IC50) was 3.1 µM in data set [11]; 0.05 µM in data set [12]; over 30 µM in [14]; over 30 µM in [15]; over 30 µM in data set [16]. The fraction unbound at 0.5 h, 10 µM in data set [13] is under 0.01.
Consider `COc1cc(C(=O)Nc2ccc(NC(=O)C3CCCCN3)cc2)cc(-c2c[nH]c(=O)[nH]c2=O)c1` (stereo not given), for which the outcome in [1], in data set [3], in data set [4] and in data set [6] was inactive. The IC50 in [2], in [5], in data set [7], in [8], in [9] and in [10] was over 30 µM each time. The IC50 was 0.12 µM in data set [11]; 0.05 µM in data set [12]; over 30 µM in [14]; over 30 µM in [15]; over 30 µM in data set [16]. Further, the fraction unbound at 0.5 h, 10 µM in [13] is 0.395.
For `COc1cc2c(Nc3ccc(NC(=O)c4ccccc4)cc3)nc(NCCc3ccccn3)nc2cc1O`, the IC50 was over 30 µM in [2]; over 30 µM in [5]; over 30 µM in data set [7]; over 30 µM in data set [8]; over 30 µM in data set [9]; 0.579 µM in data set [10]. Further, the half-inhibitory concentration (IC50) was 0.65 µM in data set [11]; 0.38 µM in data set [12]; over 30 µM in [14]; over 30 µM in data set [15]; over 30 µM in data set [16]. Moreover, the fraction unbound at 0.5 h, 10 µM in data set [13] was under 0.01.
`COc1cc(C(=O)Nc2ccc(NC(=O)c3ccccn3)cc2)ccc1O`: the IC50 in data set [2] is over 30 µM; in data set [5] it was over 30 µM; in data set [7], over 30 µM; in data set [8], 5.91 µM; in data set [9] it was over 30 µM; in data set [10] it was over 30 µM. For the same compound, the IC50 in data set [11] is 8.2 µM; in data set [12], 0.51 µM; in data set [14], over 30 µM; in [15] it was over 30 µM; in [16], over 30 µM. For the same compound, in data set [13], the fraction unbound at 0.5 h, 10 µM was 0.016.
On to `COc1ccc(C(=O)Nc2ccc(NC(=O)c3ccccn3)cc2)cc1-c1c[nH]c(=O)[nH]c1=O`, for which the IC50 in data set [2], in data set [5], in [7], in [8], in data set [9] and in data set [10] was over 30 µM throughout. Besides, the half-maximal inhibitory concentration (IC50) in data set [11] was over 22 µM; in data set [12], 0.95 µM; in data set [14], over 30 µM; in data set [15] it was over 30 µM; in data set [16], over 30 µM. The fraction unbound at 0.5 h, 10 µM in [13] is under 0.01.
